Data set [1] can be described thus: Apparent permeability in MDCK cells. The note with it: dog. The format is ADME, cell-based, Canis lupus familiaris.
Data set [2] in a line: Solubility of compound in FaSSIF. The class given is physicochemical.
Data set [3] in a line: Volume of distribution at steady state in CD1 mouse at 1 mg/kg, iv. The note with it: in vivo, read-out: Vdss. The format is ADME, organism-based.

Values after ≈ are worked out from the molar mass of the structure shown.

Consider four compounds from ChEMBL document CHEMBL4251550, “Applications of parallel synthetic lead hopping and pharmacophore-based virtual screening in the discovery of efficient glycine receptor potentiators” (Eur J Med Chem, 2017).

The term Papp denotes a coefficient for how fast a substance crosses the barrier. The solubility is the concentration that dissolves in the medium under given conditions. On to `O=S(=O)(c1ccc2c(c1)OCO2)N1CC[C@@H](c2ccccc2F)C1`, for which, in data set [1], the Papp was determined as 28 ×10⁻⁶ cm/s. Besides, the concentration in solution in data set [2] (solubility) was 17 µM (≈ 5.94 µg/mL).
On the same counts, the results for `CN1C(=O)[C@@H]2CN(S(=O)(=O)c3ccc4c(c3)OCO4)C[C@@H]2c2ccccc21` are 44 ×10⁻⁶ cm/s and below 1 µM.
On the same counts, the results for `COc1ccccc1OC1CN(S(=O)(=O)c2ccc3c(c2)OCO3)C1` are 44 ×10⁻⁶ cm/s and 102 µM (≈ 37.1 µg/mL).
With `COc1ccc(Cl)cc1OC1CN(S(=O)(=O)c2ccc3[nH]c(=O)oc3c2)C1`, in data set [1], the Papp was 39 ×10⁻⁶ cm/s. Moreover, the concentration in solution in data set [2] (solubility) came to 96 µM (≈ 39.4 µg/mL). Moreover, the Vd in data set [3] came to 1.4 L/kg.
